According to ChEMBL document CHEMBL4196026, “Novel Tacrine-Hydroxyphenylbenzimidazole hybrids as potential multitarget drug candidates for Alzheimer's disease” (Eur J Med Chem, 2018):
Active and inactive are the calls of the source. The rule behind the calls is not given here.

Columns and labels:
[1] = biological target: Amyloid-beta precursor protein (Homo sapiens) (UniProt P05067); experiment: Inhibition of self-induced amyloid beta (1 to 42) (unknown origin) aggregation at 40 uM measured after 24 hrs by ThT fluorescence assay relative to control
Amyloid-beta precursor protein (Homo sapiens), sequence (P05067 whole entry): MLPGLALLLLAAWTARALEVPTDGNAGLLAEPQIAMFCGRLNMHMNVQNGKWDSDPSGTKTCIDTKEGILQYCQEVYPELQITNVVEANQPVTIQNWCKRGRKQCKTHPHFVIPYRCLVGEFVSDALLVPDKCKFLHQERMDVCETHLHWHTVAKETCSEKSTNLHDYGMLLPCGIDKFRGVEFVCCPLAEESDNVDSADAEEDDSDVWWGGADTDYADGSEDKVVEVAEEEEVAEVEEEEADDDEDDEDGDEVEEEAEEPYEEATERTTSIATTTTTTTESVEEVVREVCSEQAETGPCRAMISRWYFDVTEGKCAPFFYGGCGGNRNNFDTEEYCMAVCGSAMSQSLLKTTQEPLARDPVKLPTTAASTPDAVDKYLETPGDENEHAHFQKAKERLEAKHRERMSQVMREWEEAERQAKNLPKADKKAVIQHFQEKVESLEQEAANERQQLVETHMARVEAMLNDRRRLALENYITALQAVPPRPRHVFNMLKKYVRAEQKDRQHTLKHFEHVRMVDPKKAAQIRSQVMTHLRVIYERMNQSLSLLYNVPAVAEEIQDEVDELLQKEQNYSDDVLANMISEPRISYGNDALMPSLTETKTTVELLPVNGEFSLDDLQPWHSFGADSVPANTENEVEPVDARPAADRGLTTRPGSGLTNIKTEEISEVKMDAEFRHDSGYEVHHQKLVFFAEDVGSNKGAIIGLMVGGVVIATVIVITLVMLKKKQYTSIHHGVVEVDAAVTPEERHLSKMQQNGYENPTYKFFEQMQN

SH-SY5Y [2] = experiment: Neuroprotection against Fe/LAscH(-)-induced toxicity in human SH-SY5Y cells assessed as increase in cell viability at 1 uM preincubated for 1 hr followed by Fe/LAscH(-) addition and measured after 24 hrs MTT assay; assay type: functional, cell-based
SH-SY5Y [3] = experiment: Cytotoxicity against human SH-SY5Y cells assessed as reduction in cell viability at 1 uM after 24 hrs MTT assay; assay type: cell-based
[4] = Copper chelating activity assessed as inhibition of Cu2+-induced amyloid beta (1 to 42) aggregation at 40 uM measured after 24 hrs by ThT fluorescence assay relative to control
Acetylcholinesterase = Acetylcholinesterase (Electrophorus electricus, UniProt O42275); experiment: Inhibition of electric eel AChE using acetylthiocholine iodide as substrate preincubated for 15 mins followed by addition of substrate measured after 5 mins
Acetylcholinesterase, sequence (O42275 whole entry): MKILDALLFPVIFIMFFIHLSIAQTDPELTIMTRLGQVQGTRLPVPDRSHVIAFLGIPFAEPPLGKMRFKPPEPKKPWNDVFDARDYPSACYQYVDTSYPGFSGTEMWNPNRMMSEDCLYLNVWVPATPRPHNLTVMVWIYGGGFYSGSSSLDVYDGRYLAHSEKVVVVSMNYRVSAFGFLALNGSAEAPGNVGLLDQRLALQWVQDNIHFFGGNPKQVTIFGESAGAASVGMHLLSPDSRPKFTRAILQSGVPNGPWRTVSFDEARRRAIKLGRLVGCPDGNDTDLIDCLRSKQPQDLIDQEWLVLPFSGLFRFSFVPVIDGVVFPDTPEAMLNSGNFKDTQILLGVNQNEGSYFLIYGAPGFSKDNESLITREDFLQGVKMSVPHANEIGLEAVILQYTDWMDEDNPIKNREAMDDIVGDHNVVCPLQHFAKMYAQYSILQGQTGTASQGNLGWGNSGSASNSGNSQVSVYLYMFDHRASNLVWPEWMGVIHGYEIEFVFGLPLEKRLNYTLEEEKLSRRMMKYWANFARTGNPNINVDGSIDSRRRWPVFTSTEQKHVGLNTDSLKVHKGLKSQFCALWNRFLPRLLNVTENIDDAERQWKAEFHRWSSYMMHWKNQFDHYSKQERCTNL

SH-SY5Y [5] = experiment: Neuroprotection against amyloid beta (1 to 42)-induced toxicity in human SH-SY5Y cells assessed as increase in cell viability at 1 uM preincubated for 1 hr followed by amyloid beta (1 to 42) addition and measured after 24 hrs MTT assay; assay type: functional, cell-based
[6] = biological target: Amyloid-beta precursor protein (Homo sapiens) (UniProt P05067); experiment: Inhibition of self-induced amyloid beta (1 to 42) (unknown origin) aggregation at 50 uM measured after 24 hrs by uranyl acetate staining based TEM analysis
[7] = Copper chelating activity assessed as inhibition of Cu2+-induced amyloid beta (1 to 42) aggregation at 80 uM measured after 24 hrs by ThT fluorescence assay relative to control
[8] = Copper chelating activity assessed as inhibition of Cu2+-induced amyloid beta (1 to 42) aggregation at 50 uM measured after 24 hrs by uranyl acetate staining based TEM analysis
SH-SY5Y [9] = experiment: Cytotoxicity against human SH-SY5Y cells assessed as reduction in cell viability at 2.5 uM after 24 hrs MTT assay; assay type: cell-based
SH-SY5Y [10] = experiment: Neuroprotection against amyloid beta (1 to 42)-induced toxicity in human SH-SY5Y cells assessed as increase in cell viability at 2.5 uM preincubated for 1 hr followed by amyloid beta (1 to 42) addition and measured after 24 hrs MTT assay; assay type: functional, cell-based
SH-SY5Y [11] = experiment: Neuroprotection against Fe/LAscH(-)-induced toxicity in human SH-SY5Y cells assessed as increase in cell viability at 2.5 uM preincubated for 1 hr followed by Fe/LAscH(-) addition and measured after 24 hrs MTT assay; assay type: functional, cell-based
SH-SY5Y [12] = experiment: Neuroprotection against amyloid beta (1 to 42)-induced toxicity in human SH-SY5Y cells assessed as increase in cell viability at 0.1 uM preincubated for 1 hr followed by amyloid beta (1 to 42) addition and measured after 24 hrs MTT assay; assay type: functional, cell-based
[13] = Metal chelating activity assessed as compound-Cu2+ complex formation at pH 7.4
SH-SY5Y [14] = experiment: Cytotoxicity against human SH-SY5Y cells assessed as reduction in cell viability at 0.1 uM after 24 hrs MTT assay; assay type: cell-based
SH-SY5Y [15] = experiment: Neuroprotection against Fe/LAscH(-)-induced toxicity in human SH-SY5Y cells assessed as increase in cell viability at 0.1 uM preincubated for 1 hr followed by Fe/LAscH(-) addition and measured after 24 hrs MTT assay; assay type: functional, cell-based

Compound | Activity (SH-SY5Y [2]) | Activity (SH-SY5Y [3]) | IC50 (Acetylcholinesterase; read-out: IC50) | Activity (SH-SY5Y [5]) | inhibition [7] | further results
O=C(NCCNc1c2c(nc3cc(Cl)ccc13)CCCC2)c1ccc2[nH]c(-c3ccccc3O)nc2c1 | Active | Non-Toxic | 6.3 nM | inactive |  | inhibition [1]: 21.9%; inhibition [4]: 20.9%
O=C(NCCCNc1c2c(nc3ccccc13)CCCC2)c1ccc2[nH]c(-c3ccccc3O)nc2c1 |  |  | 30.9 nM |  | 77.3% | inhibition [6]: Active; inhibition [8]: Active
O=C(NCC(O)CNc1c2c(nc3ccccc13)CCCC2)c1ccc2[nH]c(-c3ccccc3O)nc2c1 (centres undefined) |  |  | 16.8 nM |  | 59.5% | Activity (SH-SY5Y [9]): Non-Toxic; Activity (SH-SY5Y [10]): Active; Activity (SH-SY5Y [11]): Active
Oc1ccccc1-c1nc2ccccc2[nH]1 |  |  |  |  |  | IC50 (Acetylcholinesterase): Not Active
O=C(NCC(O)CNc1c2c(nc3cc(Cl)ccc13)CCCC2)c1ccc2[nH]c(-c3ccccc3O)nc2c1 (centres undefined) | Active | Non-Toxic | 18.1 nM | Active |  | 
O=C(NCCCCNc1c2c(nc3cc(Cl)ccc13)CCCC2)c1ccc2[nH]c(-c3ccccc3O)nc2c1 | Active | Non-Toxic | 142 nM | Active |  | 
O=C(NCCNc1c2c(nc3ccccc13)CCCC2)c1ccc2[nH]c(-c3ccccc3O)nc2c1 |  |  | 36.4 nM |  | 49.4% | 
O=C(NCCCNc1c2c(nc3cc(Cl)ccc13)CCCC2)c1ccc2[nH]c(-c3ccccc3O)nc2c1 |  |  | 23.7 nM |  | 55.8% | Activity (SH-SY5Y [12]): Active; Kd [13]: 0.01 nM; Activity (SH-SY5Y [14]): Non-Toxic; Activity (SH-SY5Y [15]): Active
O=C(NCCCCNc1c2c(nc3ccccc13)CCCC2)c1ccc2[nH]c(-c3ccccc3O)nc2c1 |  |  | 208 nM |  | 65.5% | 
